One experiment addresses T1, NLRP3 (Homo sapiens, UniProt Q96P20).
T1 construct: full-length NLRP3-Nanoluc fusion protein
Description: NanoBRET target engagement (tracer displacement) in live HEK293 cells. The format is cell-based.

The next experiment deals with T2, carbonic anhydrase I (Homo sapiens, UniProt P00915).
T2 construct: gene CA1; recombinant carbonic anhydrase I (C4396, Sigma-Aldrich)
Kind of experiment: p-NPA esterase activity assay with […] compound. The format is biochemical.

The target in the next experiment is T3, carbonic anhydrase II (Homo sapiens, UniProt P00918).
T3 construct: gene CA2; CA II (C6165, Sigma-Aldrich)
Description: p-NPA esterase activity assay with […] compound. The format is biochemical.

SMILES strings stand for the structures.

T1 sequence (Q96P20 whole entry, the tested form may be a part): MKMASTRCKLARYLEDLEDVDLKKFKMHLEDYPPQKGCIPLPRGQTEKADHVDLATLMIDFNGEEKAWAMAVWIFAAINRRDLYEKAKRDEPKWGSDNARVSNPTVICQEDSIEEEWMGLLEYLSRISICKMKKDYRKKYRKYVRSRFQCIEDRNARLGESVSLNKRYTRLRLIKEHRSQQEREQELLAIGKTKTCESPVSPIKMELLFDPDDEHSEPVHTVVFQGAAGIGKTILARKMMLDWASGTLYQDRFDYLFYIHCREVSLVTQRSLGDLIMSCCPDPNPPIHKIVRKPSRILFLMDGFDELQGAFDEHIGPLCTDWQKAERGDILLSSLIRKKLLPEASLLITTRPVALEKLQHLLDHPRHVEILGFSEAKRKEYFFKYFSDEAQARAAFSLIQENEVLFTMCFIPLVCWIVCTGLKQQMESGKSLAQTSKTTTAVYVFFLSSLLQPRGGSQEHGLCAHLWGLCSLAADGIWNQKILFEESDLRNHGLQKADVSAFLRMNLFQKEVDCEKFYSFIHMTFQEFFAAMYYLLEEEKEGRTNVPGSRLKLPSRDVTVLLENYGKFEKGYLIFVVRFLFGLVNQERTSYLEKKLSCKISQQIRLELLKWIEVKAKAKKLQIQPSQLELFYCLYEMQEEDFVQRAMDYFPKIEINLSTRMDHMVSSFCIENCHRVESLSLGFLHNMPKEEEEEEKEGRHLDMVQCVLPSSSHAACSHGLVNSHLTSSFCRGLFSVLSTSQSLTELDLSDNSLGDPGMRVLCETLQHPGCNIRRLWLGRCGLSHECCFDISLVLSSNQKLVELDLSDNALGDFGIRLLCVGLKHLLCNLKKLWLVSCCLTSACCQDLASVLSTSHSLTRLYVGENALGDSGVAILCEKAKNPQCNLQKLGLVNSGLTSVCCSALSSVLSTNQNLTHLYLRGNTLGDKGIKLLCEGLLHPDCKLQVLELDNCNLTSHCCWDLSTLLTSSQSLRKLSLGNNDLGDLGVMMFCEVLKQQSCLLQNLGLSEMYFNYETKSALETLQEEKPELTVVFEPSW
T2 sequence (P00915 2-261): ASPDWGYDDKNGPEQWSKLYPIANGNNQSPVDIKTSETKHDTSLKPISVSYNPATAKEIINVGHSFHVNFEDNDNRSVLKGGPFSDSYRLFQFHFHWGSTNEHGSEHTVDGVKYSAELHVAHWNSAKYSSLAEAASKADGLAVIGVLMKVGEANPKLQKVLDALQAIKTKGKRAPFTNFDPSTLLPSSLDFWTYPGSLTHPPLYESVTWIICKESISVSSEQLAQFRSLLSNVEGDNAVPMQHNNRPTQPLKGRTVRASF

Regarding `CC(C)(O)c1nn(CC(=O)Nc2ccncn2)c(=O)c2cc3sc(Cl)cc3n12` [NIC-11], the IC50 on NLRP3 is 0.212 µM.
`CC(C)c1nn(CC(=O)N[C@@H]2CCCN(CC3CC3)C2)c(=O)c2cc3sc(Cl)cc3n12` [NIC-12]: the IC50 on NLRP3 was found to be 0.131 µM. Compared with the last molecule, the IC50 is about 1.6-fold lower.
For the molecule `CC(C)(O)c1coc(S(=O)(=O)NC(=O)Nc2c3c(cc4c2CCC4)CCC3)c1` [CRID3], the figures for the “p-NPA esterase activity assay with 100 μM compound” value at carbonic anhydrase I and on carbonic anhydrase II were “observed significant inhibition of the related enzyme carbonic anhydrase I as well” and “We confirmed this off-target activity of CRID3 in our studies”, respectively.

A word on the IC50: it is the point on the concentration scale where inhibition reaches its midpoint. Read a low IC50 as greater potency.
